Experiments:
HNE = target: T1, HNE (Homo sapiens, UniProt P08246); experiment: kinetic studies of HNE inhibition; type: biochemical
T1 sequence (P08246 30-267): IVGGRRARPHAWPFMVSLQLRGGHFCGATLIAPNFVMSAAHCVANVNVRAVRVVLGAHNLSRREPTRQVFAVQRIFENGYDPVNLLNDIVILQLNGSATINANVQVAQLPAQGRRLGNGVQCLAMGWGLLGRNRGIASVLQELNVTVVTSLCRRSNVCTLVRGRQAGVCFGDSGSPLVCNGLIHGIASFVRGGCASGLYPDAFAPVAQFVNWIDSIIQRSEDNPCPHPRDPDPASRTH
Procedure: (§1) Target 2 (the Zeneca molecule) was given in a 70-fold molar excess relative to HNE. In the kinetic studies, Target 2 has 2 nM affinity. […] Accordingly, the Target C was given to the animals in a 100 fold molar excess relative to HNE in these studies.

mice exposed to HNE = experiment: Bronchoalveolar lavage of the lungs following HNE exposure (lung blood cell level); type: in vivo
Procedure: A total of 14 animals were used in this study. Anesthetized mice received 0.1 ml of solution delivered by a blunt tip catheter to the opening of the trachea and the animals allowed to aspirate the solution into their lungs (this method is also referred to as intratracheal instillation). All animals were exposed to the treatment for 2 hours and re-anesthetized. Bronchoalveolar lavage of the lungs was performed as described below. […] Target 2 (a potent HNE inhibitor developed by Zeneca in the early 1990s) when given with the HNE, reduced the average blood level in the lungs by 34% to 0.035 grams. Target C (the Zeneca molecule covalently attached to the N-terminus of the first 25 residues of the human surfactant B peptide) when given with the HNE reduced the average blood level in the lungs by 87% to 0.007 grams.
A set of animals was used to determine the optimal concentration of HNE for the study. […] The amount of HNE was reduced to 40 micrograms to maintain a maximal detrimental but survivable effect. The animals exposed to 40 micrograms of HNE were able to survive long enough to perform the complete study. All animals remaining in the complete study were exposed to 40 micrograms of HNE.
as §1
Bronchio-Alveolar lavage (BAL) is performed by 1) anesthetizing the animals; 2) performing a tracheotomy on the animals and cutting open the chest and spreading the ribs to enable full lung expansion; 3) pressurizing 1 ml of PBS buffer solution into the lungs through the tracheotomy catheter; 4) sucking the solution out of the lungs; 5) centrifuging the recovered solution to separate the red blood cell fraction from the liquid fraction; and 6) weighing the red blood cell fraction.

[1] = system: mice with HNE induced emphysema; experiment: HNE induced emphysema, intratracheal delivery, lung histology and mean linear intercept after four weeks; type: in vivo
Procedure: A total of 42 animals were used in this study. Anesthesized mice received 0.1 ml of solution delivered by intratracheal instillation as described above in Example 4. Animals were divided into the following treatment groups: four animals received saline only; ten animals received HNE only; four animals received the Zeneca inhibitor (target 2) only; eight animals received HNE mixed with the Zeneca inhibitor (target 2); eight animals received Zeneca inhibitor linked to a lung surfactant peptide (target C) only; and eight animals received HNE mixed with Zeneca inhibitor linked to a lung surfactant peptide (target C). Animals receiving HNE were instilled with 40 micrograms HNE. Target 2 (Zeneca inhibitor) was administered in a 70-fold molar excess relative to HNE and Target C (Zeneca inhibitor linked to a lung surfactant peptide) was administered in a 100 fold molar excess relative to HNE as described in Example 4.
All animals were observed a four week period prior to sacrifice following IRB approved protocols and the lungs from each animal were removed for sectioning. The Hilar and central region was sectioned from the left lung and the caudal region was sectioned from the right lung of each animal. Lung sections were scored using blind-scoring by an expert as “E” for emphysema and “N” for no emphysema.
The distance between adjacent alveolar walls was also measured to quantitate the degree of lung destruction for each treatment group. Lung sections obtained from each animal were analyzed under a microscope (which is connected to a computer) and lines were drawn over the lung sections between adjacent alveolar walls. The distance along the lines was calculated to determine the average distance or mean linear intercept (MLI) between adjacent alveolar walls. An increase in the average distance between adjacent alveolar walls corresponds to an increase in lung destruction.

[2] = given with 40 micrograms HNE by intratracheal instillation, 2 hours, weight of BAL red blood cell fraction
[3] = HNE mixed with compound, four weeks, blind scoring

## Target C (FPIPLPYCWLCRALIKRIQAMIPKG)
HNE
  loss of potency as compared to Target 2: loses approximately two orders of magnitude of potency
HNE; read-out: affinity for HNE
  Ki: ~200 nM
Mice exposed to HNE; [2]
  Lung Blood Cell Level, Group mean: 0.007 g
  Lung Blood Cell Level, Mouse group 1: 0 g
  Lung Blood Cell Level, Mouse group 2: 0.007 g
  Lung Blood Cell Level, Mouse group 3: 0.014 g
Mice exposed to HNE; given with the HNE, 2 hours, HNE alone 0.053 grams
  average blood level in the lungs: 0.007 grams
Mice exposed to HNE; given with the HNE, versus HNE alone
  reduction of the average blood level in the lungs: 87%
[1]; HNE (40 micrograms) mixed with compound, intratracheal, four weeks, saline only 44.40, HNE only 51.45
  MLI (mean linear intercept between adjacent alveolar walls): 45.82 μm
[1]; HNE + compound, compared to HNE only and saline only
  effect on HNE induced emphysema by MLI: strongly inhibited HNE induced emphysema
[1]; [3]
  effect on HNE induced emphysema, lung histology sections: strongly inhibited HNE induced emphysema
  lung histology sections compared with animals receiving saline only: could not be distinguished in blind scoring

Source: patent US9289388B2, “Methods and compositions for delivery of medicaments to the lungs” (Paka Pulmonary Pharmaceuticals, Inc., priority 2008, dated 2016)
